We go through two compounds from patent publication US11173124B2, “Oral delivery of GLP-1 peptide analogs” (MEDIMMUNE LIMITED, priority 2017, dated 2021).

A short description of one series: in vivo. The following applies: beagle, dog, po. From the text: The following materials and methods were used for quantitative measurements of GLP-1 peptide analogs in plasma (e.g., rat or dog plasma) in the Examples below. These methods used a SCIEX 6600 TripleTOF mass spectrometer coupled with a Shimadzu ultra-high performance liquid chromatography (UHPLC). The specificity of the method was ensured by the retention time, the selected mass for Single-Reaction-Monitoring (SRM) mode, and the selected fragment mass in MS/MS (MS^2) mode. […] The analytes of interest were analyzed from plasma, a complex biological matrix. Although protein precipitation using organic solvent can reduce matrix interference, significant background still persists. The high mass accuracy offered by the TripleTOF mass spectrometers further eliminated background noise, thus enhancing signal: noise (S/N) and allowing improved quantification.
The plasma extraction procedure used the following steps: • Samples, standards, and quality controls were incubated until they reached room temperature. They were then incubated at 60° C. for 2 minutes and cooled down to room temperature, vortexed, and spun down. • 70 μL of samples, standards, or quality controls were transferred into a 1 mL 96-well plate. • In each well, 420 uL of Precipitation Solution was added. The plate was sealed and shook for 10 minutes on a plate shaker at 600 rpm. • The plate was centrifuged at 18G, 2500 RFC, 20° C. for 10 minutes. • The plate was carefully removed, and the upper clear supernatant was extracted with a 200 uL multichannel pipette into a new 96-well protein lobind plate. The supernatant was extracted twice for each well, and the supernatants were combined. • The Plate was placed in TurboVap and the extracted supernatant was dried completely with heated (65° C.) Nitrogen gas at 60 Fahrenheit (Fh). • After the plate was completely dry, the plates were covered and incubated at room temperature for at least 30 minutes until the plate returned back to ambient temperature. • 150 μL of Reconstitution solution was added to each well. The plate was covered with a pierceable place seal and shaken at 600 rpm for 10 minutes. • The samples were submitted to the LC-MS/MS on the same day of Preparation
Quantification of the data obtained using the high resolution SCIEX 6600 instrument was then performed as follows: • For the quantification, extracted ion chromatograms (XIC) using 0.2 Da m/z extraction window centered on the accurate mass of each fragment ion were generated. Accurate mass was calculated from the structure of the compound. […] Concentrations of the target analyte in unknown samples were obtained by regression analysis using linear fits of peak areas vs. analyte concentration, weighted 1/(concentration). • The quality of the assay was controlled by the quality control samples. • Either Experiment 1 or Experiment 2 could be used for the quantification of the GLP-1 peptide analogs in high resolution mode.
MEDI7219 (SEQ ID NO:2) formulations were studied in the following canine study, which was designed to compare different tablet delivery systems and peptides in enterically coated tablet formulation compositions delivered orally. […]
The efficacy of sodium caprate as a permeation enhancer was also evaluated.

The nature of series [1]: Canine study, MEDI7219 enterically coated tablet, single and repeated dosing (Example 14). It is filed as in vivo. The procedure:
Tablet optimization was further established in the following canine study. The goals of this study were to evaluate the performance of the group 8 tablet formulation (Example 13, Table 20) as an enterically-coated (EC) tablet and to evaluate repeated dosing of this formulation. A Eudragit formula dissolving at pH 5.5 or above was applied to the tablets as enteric coating. Enterically-coated tablets were administered on day 0 followed by a 1 week wash-out. Following wash-out, animals received additional doses on days 7, 8, 9, 10 and 11.

The target of a further series is GLP-1 receptor (Homo sapiens, UniProt P43220). Nature of the series: cAMP assay, primary assay as described in WO 2016/198544. It is filed as cell-based. The following applies: in vitro potency at the GLP-1 receptor. From the text:
The biological activity of a GLP-1 peptide analog can be evaluated, for example, by assessing the ability of the peptide to activate a receptor (e.g., a GLP-1 receptor). Peptide activation of such receptors results in downstream accumulation of cAMP second messenger which can be measured in a functional activity assay.

The nature of series [2]: Canine study, compositions around 6.5:1 Na CDC:PG ratio in enterically coated tablets (Example 23, Table 30). The format is in vivo. To be noted: dogs, oral enterically coated tablet.
Series [3] in a line: Canine site of absorption study, IntelliCap, SEQ ID NO:3 solution formulations (Example 10). It is filed as in vivo, Beagle dogs. To be noted: for bioavailability: Beagle, plasma; for bioavailability / AUC(0-t) / Cmax / Tmax: dog, pH 8, canine; for F: canine; for AUC(0-t) / Cmax / Tmax: in vivo. From the text: The IntelliCap® system, an electronic oral drug delivery and monitoring device, was used to determine regional absorption for solution formulations. In the form of a capsule, the IntelliCap® incorporates a microprocessor, battery, pH sensor, temperature sensor, radio frequency (RF) wireless transceiver, fluid pump, and drug reservoir. The IntelliCap® system can determine the drug's position in the gastrointestinal (GI) tract by a pH monitoring sensor in the capsule, thereby eliminating the need for in vivo imaging. This system was employed to assess the site of absorption of GLP-1 peptide analogs in the GI tract following oral delivery to canines (Beagle dogs). Solution formulations without permeation enhancer excipients were used as intravenous (IV) and subcutaneous (SC) controls in the study. In brief, solution formulations were prepared and transferred to the IntelliCap® capsule which was dosed to canines, wherein the formulation was released at a specific site in the GI tract.

Where [4] appears, read: 4:1 ratio, 120 mg Na CDC and 30 mg PG, 3 mg MEDI7219.
Setting [5] is: 14:1 ratio, 140 mg Na CDC and 10 mg PG, 3 mg MEDI7219.
[6] abbreviates: 29:1 ratio, 145 mg Na CDC and 5 mg PG, 3 mg MEDI7219.
Where [7] appears, read: po, 0.74 mg/kg, PO IntelliCap capsule-proximal small bowel, 8 mg/mL peptide, 10 mg/mL Na CDC, 2 mg/mL Sodium Caprate, PBS pH 8.0.
[8] abbreviates: po, 0.74 mg/kg, PO IntelliCap proximal colon, 8 mg/mL peptide, 10 mg/mL Na CDC, 2 mg/mL Sodium Caprate, PBS pH 8.0.
Setting [9] is: po, 0.74 mg/kg, PO gavage, 8 mg/mL peptide, 10 mg/mL Na CDC, 2 mg/mL Sodium Caprate, PBS pH 8.0.
Setting [10] is: iv, 0.01 mg/kg, 0.1 mg/mL peptide in PBS pH 8.0.
Where [11] appears, read: sc, 0.01 mg/kg, 0.1 mg/mL peptide in PBS pH 8.0.

Each structure is given as a SMILES string. Starred links: 1 amine or outer side, 2 acyl side, 3 side chain; linkers in the order of their positions; H or OH if unused. Non-standard residues stand in square brackets, D forms with d. Residues, ends and D or L forms follow the SMILES beside them. Groups on a side chain read outwards from the residue. *: point of attachment. γGlu = O=C(O)[C@H](CCC(=O)[*:2])N[*:1]; αMeF = C[C@](N)(Cc1ccccc1)C(=O)O; αMeK = C[C@](N)(CCCCN)C(=O)O; Lauroyl = CCCCCCCCCCCC(=O)*; αMeS = C[C@](N)(CO)C(=O)O; AEEA = NCCOCCOCC(=O)O; Aib = CC(C)(N)C(=O)O

Sequence of GLP-1 receptor (P43220 24-463): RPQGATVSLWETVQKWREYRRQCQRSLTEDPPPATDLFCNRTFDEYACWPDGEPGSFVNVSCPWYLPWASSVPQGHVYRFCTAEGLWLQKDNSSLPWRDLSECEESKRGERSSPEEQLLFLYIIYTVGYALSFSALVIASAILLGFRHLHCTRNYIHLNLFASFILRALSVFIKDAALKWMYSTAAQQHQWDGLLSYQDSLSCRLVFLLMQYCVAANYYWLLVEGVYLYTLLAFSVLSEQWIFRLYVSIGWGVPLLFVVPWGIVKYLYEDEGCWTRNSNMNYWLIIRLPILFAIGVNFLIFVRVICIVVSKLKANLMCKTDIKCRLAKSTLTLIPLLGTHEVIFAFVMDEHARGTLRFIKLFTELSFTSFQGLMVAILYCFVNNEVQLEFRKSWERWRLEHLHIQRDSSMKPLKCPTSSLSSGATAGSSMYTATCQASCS

For orientation: AUC means the area under the concentration-time curve, a measure of exposure. Read a low AUC as low exposure. A word on the half-life: it is the time in which the quantity being followed falls by half. Higher therefore signals slow loss. As usually defined, the EC50 is the concentration needed to bring the measured effect to its halfway point. Read a high EC50 as a need for much substance. Consider `CCCCCCCCCCCC(=O)N[C@@H](CCC(=O)NCCOCCOCC(=O)NCCOCCOCC(=O)NCCCC[C@H](NC(=O)[C@H](C)NC(=O)[C@@H](NC(=O)[C@](C)(Cc1ccccc1)NC(=O)[C@H](CCC(=O)O)NC(=O)[C@](C)(CCCCN)NC(=O)[C@H](C)NC(=O)[C@H](C)NC(=O)[C@H](CCC(=O)O)NC(=O)CNC(=O)[C@H](CCC(=O)O)NC(=O)[C@H](CC(C)C)NC(=O)[C@H](CCCCNC(=O)COCCOCCNC(=O)COCCOCCNC(=O)CC[C@H](NC(=O)CCCCCCCCCCC)C(=O)O)NC(=O)[C@H](CO)NC(=O)[C@](C)(CO)NC(=O)[C@@H](NC(=O)[C@H](CC(=O)O)NC(=O)[C@H](CO)NC(=O)[C@@H](NC(=O)[C@](C)(Cc1ccccc1)NC(=O)[C@H](CO)NC(=O)CNC(=O)[C@H](CCC(=O)O)NC(=O)C(C)(C)NC(=O)[C@@H](N)Cc1c[nH]cn1)[C@@H](C)O)C(C)C)[C@@H](C)CC)C(=O)N[C@H](C(=O)N[C@H](C(=O)N[C@@H](CCC(=O)O)C(=O)NCC(=O)NCC(N)=O)C(C)C)C(C)C)C(=O)O` [MEDI7219, Free-H-[AIB]-EGS-[αMePhe]-TSDV-[αMeSer]-SK[(PEG2)2-γE-Lauroyl]-LEGEAA-[αMeLys]-E-[αMePhe]-IAK[(PEG2)2-γE-Lauroyl]-VVEGG-amide] (H-H[Aib]EGS[αMeF]TSDV[αMeS]SK([AEEA-AEEA-γGlu-Lauroyl])LEGEAA[αMeK]E[αMeF]IAK([AEEA-AEEA-γGlu-Lauroyl])VVEGG-NH2), for which the exposure (AUC) in “in vivo” came to 13500 ng·h/mL. In the series “in vivo”, this compound gave a half-life of 10 h. The F in series [1] (Enterically Coated Oral tablet (Eudragit, pH 5.5): 1 mg peptide, 100 mg Na CDC, 200 mg PG) is 4.6%; in series [1] (Intravenous, 0.05 mg/kg, 0.5 mg/mL in 50 mM Tris, 150 mM mannitol, 0.02% Polysorbate 80, pH8.0), 100%; in series [2] (setting [4]) it was approximately 5.7%; in series [2] (setting [5]) it was approximately 4.6%; in series [2] (setting [6]), approximately 3.8%; in series [2] (No PG formulation, 150 mg Na CDC) it was approximately 0.6%. Besides, in series [1] (enterically coated tablet 1 mg peptide, 100 mg Na CDC, 200 mg PG, day 0, then days 7, 8, 9, 10 and 11), the “bioavailability and PK variability on repeated dosing” value is on record as “consistent bioavailability with reduced PK variability in subsequent dosing days”. Besides, the EC50 on GLP-1 receptor was approximately 3.9 pM. Moreover, the “PK variability (CV) at C max” value in series [2] (setting [4]) is on record as 52.8%. The entries for the “PK variability at C max” value in series [2] (setting [5]) and in series [2] (setting [6]) were 84.4% and 135.3%, respectively.

In general, bioavailability refers to the share of a dose that reaches the circulation, judged against a reference dose that is usually intravenous. As usually defined, the AUC(0-t) is exposure summed from dosing to a finite time, without extrapolation to infinity. A lower AUC(0-t) goes with less exposure. In general, Cmax refers to the maximum level reached in the sampled fluid or tissue. For orientation: Tmax means the time from dosing to the highest level. Consider `CC[C@H](C)[C@H](NC(=O)C(C)(Cc1ccccc1)NC(=O)[C@H](CCC(=O)O)NC(=O)[C@H](CCCCNC(=O)COCCOCCNC(=O)COCCOCCNC(=O)CC[C@H](NC(=O)CCCCCCCCCCCCCCCCC(=O)O)C(=O)O)NC(=O)[C@H](C)NC(=O)[C@H](C)NC(=O)[C@H](CCC(=O)O)NC(=O)CNC(=O)[C@H](CCC(=O)O)NC(=O)[C@H](CC(C)C)NC(=O)C(C)(Cc1ccccc1)NC(=O)[C@H](CO)NC(=O)C(C)(CO)NC(=O)[C@@H](NC(=O)[C@H](CC(=O)O)NC(=O)[C@H](CO)NC(=O)[C@@H](NC(=O)C(C)(Cc1ccccc1)NC(=O)[C@H](CO)NC(=O)CNC(=O)[C@H](CCC(=O)O)NC(=O)C(C)(C)NC(=O)[C@@H](N)Cc1c[nH]cn1)[C@@H](C)O)C(C)C)C(=O)N[C@@H](C)C(=O)NC(C)(Cc1ccccc1)C(=O)N[C@H](C(=O)N[C@H](C(=O)NC(C)(CCCCN)C(=O)NCC(=O)NCC(N)=O)C(C)C)C(C)C` (stereo partly drawn) [SEQ ID NO: 3, Free-H-[AIB]-EGS-[αMePhe]-TSDV-[αMeSer]-S-[αMePhe]-LEGEAAK[(PEG2)2-γE-Stearate]-E-[αMePhe]-IA-[αMePhe]-VV-[αMeLys]-GG-amide], for which the bioavailability in series [3] (setting [7]) is 1.14%; in series [3] (setting [8]), 3.95%; in series [3] (setting [9]) it was 0.19%. For the same compound, the F in series [3] (IV, 0.01 mg/kg, 0.1 mg/mL peptide in PBS pH 8.0) was 100%; in series [3] (SC, 0.01 mg/kg, 0.1 mg/mL peptide in PBS pH 8.0), 105.84%. The AUC(0-t) in series [3] (setting [10]) worked out at 1650 ng·h/mL; in series [3] (setting [7]) it was 1390 ng·h/mL; in series [3] (setting [8]), 4840 ng·h/mL; in series [3] (setting [9]), 228 ng·h/mL; in series [3] (setting [11]) it was 1750 ng·h/mL. Also, the peak concentration (Cmax) was determined as 140 ng/mL in series [3] (setting [10]); 60.7 ng/mL in series [3] (setting [7]); 386 ng/mL in series [3] (setting [8]); 7.1 ng/mL in series [3] (setting [9]); 45.1 ng/mL in series [3] (setting [11]). For the same compound, the Tmax worked out at 0.5 h in series [3] (setting [10]), 0.5 h in series [3] (setting [7]) and 4 h in series [3] (setting [9]).
